Source: patent US10829520B2, “Beta-hairpin peptidomimetics” (POLYPHOR AG, priority 2015, dated 2020)
Like-named read-outs stand apart in the source and are kept apart here. Where a SMILES comes first, the peptide text is derived from it. Bridges are numbered along the chain shown (N, C = ends). Roman numbers before positions name the chains, in order. [ ]: non-standard residue; d: D form. Tle = CC(C)(C)[C@H](N)C(=O)O; dDab = NCC[C@@H](N)C(=O)O; Nle = CCCC[C@H](N)C(=O)O; Orn = NCCC[C@H](N)C(=O)O; Dab = NCC[C@H](N)C(=O)O; Dap = NC[C@H](N)C(=O)O; Sar = CNCC(=O)O

Legend:
Type in all cases: cell-based
[1] = tested on: Acinetobacter baumannii 872842
Escherichia coli 926415 = tested on: Escherichia coli 926415
[2] = tested on: Klebsiella pneumoniae SSI #3010
Method in brief: (§1)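 Using the CLSI reference method, each strain at approx. 10^6 CFU/mL was exposed to serially diluted peptide in MH-II broth with 0.002% P-80. After 18-20 h at 35° C, the lowest concentration showing no visible growth gave the MIC.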

[3] = tested on: Acinetobacter baumannii DSM 30008
Method in brief: as §1

[4] = tested on: Escherichia coli ATCC 25922
Method in brief: as §1

[5] = tested on: Klebsiella pneumoniae 968733
[6] = tested on: Pseudomonas aeruginosa ATCC 27853
Method in brief: as §1

[7] = tested on: human red blood cells (hRBC); assay: Hemolysis of human red blood cells
Method in brief: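 Hemolysis was read as supernatant absorbance at 540 nm and expressed as a percentage of Triton X-100 (2.5%) lysis. Washed human red cells (20% v/v) had been exposed to each peptide at 100 μg/mL for 1 h at 37° C.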

[8] = red cells of human, 1 h, 100 μg/mL
[9] = clinical isolate, Mueller-Hinton II broth, P-80 0.002% present

| SMILES | Acinetobacter baumannii 872842 MIC [1]; 872842 [µg/mL] | Escherichia coli 926415 MIC (Escherichia coli 926415; 926415) [µg/mL] | Klebsiella pneumoniae SSI #3010 MIC ([2]; SSI #3010) [µg/mL] | Acinetobacter baumannii DSM 30008 MIC ([3]; DSM 30008) [µg/mL] | Escherichia coli ATCC 25922 MIC ([4]; ATCC 25922) [µg/mL] | Klebsiella pneumoniae 968733 MIC [5]; 968733 [µg/mL] | Pseudomonas aeruginosa ATCC 27853 MIC ([6]; ATCC 27853) [µg/mL] | Hemolysis at 100 μg/mL ([7]; red cells of human, 1 h, 100) [%] | Hemolysis at 100 μg/mL [7, 8] [%] | Acinetobacter baumannii 872842 MIC [1, 9] [µg/mL] | Escherichia coli 926415 MIC (Escherichia coli 926415; [9]) [µg/mL] | Klebsiella pneumoniae SSI #3010 MIC ([2]; Mueller-Hinton II broth) [µg/mL] | Acinetobacter baumannii DSM 30008 MIC ([3]; Mueller-Hinton II broth) [µg/mL] | Escherichia coli ATCC 25922 MIC ([4]; Mueller-Hinton II broth) [µg/mL] | Klebsiella pneumoniae 968733 MIC [5, 9] [µg/mL] | Pseudomonas aeruginosa ATCC 27853 MIC ([6]; Mueller-Hinton II broth) [µg/mL] | Hemolysis at 100 μg/mL ([7]; 100 μg/mL, 20% hRBC, 1 h at 37° C.) [%] |
| --- | --- | --- | --- | --- | --- | --- | --- | --- | --- | --- | --- | --- | --- | --- | --- | --- | --- |
| CCCC[C@@H]1NC(=O)[C@@H]2CCCN2C(=O)[C@H]2CCCN2C(=O)[C@H](CO)NC(=O)[C@H](C)NC(=O)[C@H](C(C)(C)C)NC(=O)[C@H](CCN)NC(=O)[C@H](Cc2c[nH]c3ccccc23)NC(=O)[C@H](CCN)NC(=O)[C@H](CCC(=O)N[C@H](C(=O)N[C@@H](CCN)C(=O)N[C@H]2CCNC(=O)[C@H]([C@@H](C)O)NC(=O)[C@H](CCN)NC(=O)[C@H](CCN)NC(=O)[C@H](CC(C)C)NC(=O)[C@@H](Cc3ccccc3)NC(=O)[C@H](CCN)NC2=O)[C@@H](C)O)NC(=O)[C@H](CCCN)NC(=O)[C@H](CCN)NC(=O)[C@H](Cc2ccc(O)cc2)NC(=O)[C@H](CO)NC1=O [Ex. 6] (I: cyclo([Nle]SY[Dab][Orn]E[Dab]W[Dab][Tle]AS[dP]P) / II: T[Dab][Dab][Dab][dF]L[Dab][Dab]T; amide I:6-II:N; lactam II:3-II:C) | 2 | 1 | 0.5 | 2 | 0.25 | 2 | 0.5 | <1 |  |  |  |  |  |  |  |  |  |
| CCCC[C@@H]1NC(=O)[C@@H]2CCCN2C(=O)[C@H]2CCCN2C(=O)[C@H](CO)NC(=O)[C@H](CO)NC(=O)[C@H](C(C)(C)C)NC(=O)[C@@H](NC(=O)[C@@H](N)Cc2c[nH]c3ccccc23)CSSC[C@@H](C(=O)N[C@H](Cc2ccc(O)cc2)C(=O)N[C@@H](CCN)C(=O)N[C@@H](CCN)C(=O)N[C@H]2CCNC(=O)[C@H]([C@@H](C)O)NC(=O)[C@H](CCN)NC(=O)[C@H](CCN)NC(=O)[C@H](CC(C)C)NC(=O)[C@@H](Cc3ccccc3)NC(=O)[C@H](CCN)NC2=O)NC(=O)[C@H](Cc2ccc(O)cc2)NC(=O)[C@H](CO)NC1=O [Ex. 109] (H-WC[Tle]SS[dP]P[Nle]SYC[dY][Dab][Dab][Dab][Dab][dF]L[Dab][Dab]T; disulfide 2-11; lactam 15-C) | 0.5 | 0.5 | 1 | 0.5 | 0.25 | 1 | 1 |  | <1 |  |  |  |  |  |  |  |  |
| CCCC[C@@H]1NC(=O)[C@@H]2CCCN2C(=O)[C@H]2CCCN2C(=O)[C@H](CO)NC(=O)[C@H](C)NC(=O)[C@H](C(C)(C)C)NC(=O)[C@H](CCN)NC(=O)[C@H](Cc2c[nH]c3ccccc23)NC(=O)[C@H](CCN)NC(=O)[C@@H](CCN)NC(=O)[C@H](CCC(=O)N[C@@H](CCN)C(=O)N[C@@H](C(=O)N[C@@H](CCN)C(=O)N[C@H]2CCNC(=O)[C@H]([C@@H](C)O)NC(=O)[C@H](CCN)NC(=O)[C@H](CCN)NC(=O)[C@H](CC(C)C)NC(=O)[C@@H](Cc3ccccc3)NC(=O)[C@H](CCN)NC2=O)[C@H](C)O)NC(=O)[C@H](CCN)NC(=O)[C@H](Cc2ccc(O)cc2)NC(=O)[C@H](CO)NC1=O [Ex. 81] (I: cyclo(W[Dab][Tle]AS[dP]P[Nle]SY[Dab]E[dDab][Dab]) / II: [Dab][dT][Dab][Dab][Dab][dF]L[Dab][Dab]T; amide I:12-II:N; lactam II:4-II:C) | 2 | 0.5 | 1 | 1 | 0.5 | 2 | 0.5 | 1 |  |  |  |  |  |  |  |  |  |
| CC(C)C[C@@H]1NC(=O)[C@@H](CC(C)C)NC(=O)[C@H](CCN)NC(=O)[C@@H](NC(=O)[C@H](CCN)NC(=O)[C@@H](NC(=O)[C@H](CCN)NC(=O)CN(C)C(=O)[C@@H]2CSSC[C@H](NC(=O)[C@@H](N)Cc3c[nH]c4ccccc34)C(=O)N[C@@H](C(C)C)C(=O)N[C@@H](C)C(=O)N[C@@H](CO)C(=O)N3CCC[C@@H]3C(=O)N3CCC[C@H]3C(=O)N[C@@H](CC(C)C)C(=O)N[C@@H](CO)C(=O)N[C@@H](Cc3ccc(O)cc3)C(=O)N2)[C@@H](C)O)CCNC(=O)[C@@H]([C@H](C)O)NC(=O)[C@H](CCN)NC(=O)[C@H](CCN)NC1=O [Ex. 178] (H-WCVAS[dP]PLSYC[Sar][Dab]T[Dab][Dab][Dab][dL]L[Dab][Dab][dT]; disulfide 2-11; lactam 16-C) | 2 | 1 | 0.5 | 1 | 0.5 | 8 | 4 |  | <1 |  |  |  |  |  |  |  |  |
| CC(C)C[C@@H]1NC(=O)[C@@H](NC(=O)[C@@H](N)Cc2c[nH]c3ccccc23)CSSC[C@@H](C(=O)NCC(=O)N[C@@H](CCN)C(=O)N[C@H](C(=O)N[C@@H](CCN)C(=O)N[C@H]2CCNC(=O)[C@H]([C@@H](C)O)NC(=O)[C@H](CCN)NC(=O)[C@H](CCN)NC(=O)[C@H](CC(C)C)NC(=O)[C@@H](CC(C)C)NC(=O)[C@H](CCN)NC2=O)[C@@H](C)O)NC(=O)[C@H](CC(C)C)NC(=O)[C@H](CO)NC(=O)[C@H](Cc2ccc(O)cc2)NC(=O)[C@@H]2CCCN2C(=O)[C@H]2CCCN2C(=O)[C@H]([C@@H](C)O)NC(=O)[C@H](C)NC1=O [Ex. 145] (H-WCLAT[dP]PYSLCG[Dab]T[Dab][Dab][Dab][dL]L[Dab][Dab]T; disulfide 2-11; lactam 16-C) | 0.0625 | 0.125 | 0.0625 | 0.03125 | 0.0625 | 0.5 | 0.5 |  | 3 |  |  |  |  |  |  |  |  |
| CC(C)C[C@@H]1NC(=O)[C@@H](Cc2ccccc2)NC(=O)[C@H](CCN)NC(=O)[C@@H](NC(=O)[C@H](CCN)NC(=O)[C@@H](NC(=O)[C@H](CCN)NC(=O)[C@H]2CC(=O)N[C@@H](CCN)C(=O)N[C@@H](Cc3c[nH]c4ccccc34)C(=O)N[C@@H](CCN)C(=O)N[C@@H](C(C)(C)C)C(=O)N[C@@H](C)C(=O)N[C@@H](CO)C(=O)N3CCC[C@@H]3C(=O)N3CCC[C@H]3C(=O)N[C@@H](C(C)C)C(=O)N[C@@H](CO)C(=O)N[C@@H](Cc3ccc(O)cc3)C(=O)N[C@@H](CCN)C(=O)N[C@@H](CCCN)C(=O)N2)[C@@H](C)O)CCNC(=O)[C@H]([C@@H](C)O)NC(=O)[C@H](CCN)NC(=O)[C@H](CCN)NC1=O [Ex. 8] ([Dab]W[Dab][Tle]AS[dP]PVSY[Dab][Orn][dD][Dab]T[Dab][Dab][Dab][dF]L[Dab][Dab]T; lactam 18-C, N-14) | 0.5 | 1 | 0.25 | 0.5 | 0.25 | 2 | 0.25 | 1 |  |  |  |  |  |  |  |  |  |
| CC(=O)N[C@@H](Cc1c[nH]c2ccccc12)C(=O)N[C@H]1CSSC[C@@H](C(=O)N[C@@H](CCCN)C(=O)N[C@H](CCN)C(=O)N[C@@H](CCN)C(=O)N[C@H]2CCNC(=O)[C@H]([C@@H](C)O)NC(=O)[C@H](CCN)NC(=O)[C@H](CCN)NC(=O)[C@H](CC(C)C)NC(=O)[C@@H](Cc3ccccc3)NC(=O)[C@H](CCN)NC2=O)NC(=O)[C@H](Cc2ccc(O)cc2)NC(=O)[C@H](CN)NC(=O)[C@H](Cc2ccccc2)NC(=O)[C@H](CC(C)C)NC(=O)[C@H]2CCCN2C(=O)[C@H](CO)NC(=O)[C@H](C)NC(=O)[C@H](C(C)(C)C)NC1=O [Ex. 110] (Ac-WC[Tle]AS[dP]LF[Dap]YC[Orn][dDab][Dab][Dab][Dab][dF]L[Dab][Dab]T; disulfide 2-11; lactam 15-C) | 0.25 | 0.25 | 0.5 | 0.25 | 0.5 | 2 | 1 |  | 2 |  |  |  |  |  |  |  |  |
| CCCC[C@@H]1NC(=O)[C@@H]2CCCN2C(=O)[C@H]2CCCN2C(=O)[C@H]([C@@H](C)O)NC(=O)[C@H](CO)NC(=O)[C@H](C(C)(C)C)NC(=O)[C@@H](NC(=O)[C@H](Cc2c[nH]c3ccccc23)NC(C)=O)CSSC[C@@H](C(=O)N[C@@H](CCN)C(=O)N[C@H](C(=O)N[C@@H](CCN)C(=O)N[C@H]2CCNC(=O)[C@H]([C@@H](C)O)NC(=O)[C@H](CCN)NC(=O)[C@H](CCN)NC(=O)[C@H](CC(C)C)NC(=O)[C@@H](Cc3ccccc3)NC(=O)[C@H](CCN)NC2=O)[C@@H](C)O)NC(=O)[C@H](Cc2ccc(O)cc2)NC(=O)[C@H](C)NC1=O [Ex. 18] (Ac-WC[Tle]ST[dP]P[Nle]AYC[Dab]T[Dab][Dab][Dab][dF]L[Dab][Dab]T; disulfide 2-11; lactam 15-C) |  |  |  |  |  |  |  |  |  | 1 | 0.5 | 2 | 0.25 | 0.125 | 0.5 | 0.5 | 6 |
